# Assay results from US10494333B2, “Compound having BLT inhibitory activity and composition, for preventing or treating inflammatory diseases, comprising same as active ingredient” (DONGGUK UNIVERSITY INDUSTRY-ACADEMIC COOPERATION FOUNDATION, priority 2015, dated 2019).
# Experiments:
# [1] = test system: ovarian cancer cells (SKOV-3 cells); test: Death of anticancer agent-resistant ovarian cancer cells on co-treatment with cisplatin (MTT); format: cell-based; conditions: 10 μM pre-treated 30 minutes, cisplatin 50 μM, 24 hours, LY255283 compared to cisplatin alone, AC compounds compared with LY255283 co-treatment
# Description: The death of cancer cells was detected using a 3-(4,5-dimethylthiazol-2-yl)-2,5-diphenyltetrazolium bromide (MTT) method. More specifically, 1×10^5 of the ovarian cancer cells (SKOV-3 cells) resistant to the anti-cancer agents were dispensed on a 12-well culture dish, and cultured for 24 hours. A 0.5% serum RPMI medium was pre-treated with each of the compound prepared in one of the examples (10 μM), 10 μM of DMSO (compound solvent) as a control, and 10 μM of LY255283 as a positive control for 30 minutes. Afterward, 50 μM of an anti-cancer agent, cisplatin, was treated, and then the cells were cultured 24 hours. A 20 μL of an MTT solution (5 mg/mL, Sigma-Aldrich) was added to each well, and the cells were cultured in a humid CO2 incubator at 37° C. for 4 hours. Afterward, the supernatant was removed, and 500 µL of DMSO was added to each well to dissolve insoluble violet formazan crystals. Absorbance was measured using a microplate reader (Molecular Devices, Sunnyvale, Calif.) at 550 nm, and the measurement was repeated three times.
# [2] = test system: BLT2-expressing cells (CHO-BLT2 cells); test: LPA-induced chemotactic motility of CHO-BLT2 cells (Transwell); format: cell-based; conditions: LPA 100 nM
# Description: Chemotactic motility was analyzed using a Transwell chamber including a polycarbonate filter (8-μm pore size, Corning Costar) with a 6.5-mm diameter. […] To evaluate the effect of inhibitors, the cells were pre-treated with each inhibitor for 30 minutes before dispensing. After the cells were cultured at 37° C. in 5% CO2 for 3 hours, the filters were fixed with methanol for 3 minutes, and stained with hematoxylin and eosin for 10 minutes. […] The chemotactic motility was quantitatively analyzed by counting the cells on the lower side of the filter under an optical microscope (magnification, 200×). For each analysis, 6 fields were subjected to counting, each sample was analyzed twice, and the analysis was repeated three times.
# interleukin-4 (IL-4) = test: IL-4 production in severely asthma-induced mice; format: in vivo; conditions: severely asthma-induced mice (FIG. 8), cells separated from the abdominal cavity, pre-treated (method 5 mg/kg intraperitoneally)
# From the text: Mast cells play a pivotal role in the initial reaction to asthma, and when an allergen enters the body from the outside through an airway, the mast cells are activated, thereby secreting various cytokines (interleukin-4 and interleukin-13). Due to the cytokines, the influx of inflammatory cells, and the generation of mucus and the airway contraction occur. The inventors used 7-week-old (18 to 20 g) female BALB/c mice provided by Orient (Seoungnam, Korea) for the experiment to confirm the anti-asthma effect, and asthma was induced in the mice. On day 1 and day 14, 2.5 mg of an adjuvant aluminum hydroxide gel (alum; Pierce, Rockford, Ill.) containing a […] of ovalbumin (OVA) was injected intraperitoneally to sensitize the female […] mice. After the two initial sensitizations, on day 21, day 22 and day 23, 1% OVA was sprayed into the mice using an ultrasonic nebulizer. […] After the initial sensitizations, on day 24, AHR was detected, and on day 25, the mice were dissected to observe asthma phenotypes such as the expression of an inflammatory cytokine IL-4, and the influx of the inflammatory cells (neutrophils). In addition, the AHR detection was performed after an airway constrictor methacholine (6.25 to 50 mg/ml depending on conditions) was administered to the mice. […] The AHR was analyzed using an enhanced pause as the indicator of the asthma phenomenon.
# BLT2 [3] = molecular target: T1, BLT2 (Homo sapiens, UniProt Q9NPC1); test: biochemical
# T1 sequence (Q9NPC1 with tags, fused parts or gaps): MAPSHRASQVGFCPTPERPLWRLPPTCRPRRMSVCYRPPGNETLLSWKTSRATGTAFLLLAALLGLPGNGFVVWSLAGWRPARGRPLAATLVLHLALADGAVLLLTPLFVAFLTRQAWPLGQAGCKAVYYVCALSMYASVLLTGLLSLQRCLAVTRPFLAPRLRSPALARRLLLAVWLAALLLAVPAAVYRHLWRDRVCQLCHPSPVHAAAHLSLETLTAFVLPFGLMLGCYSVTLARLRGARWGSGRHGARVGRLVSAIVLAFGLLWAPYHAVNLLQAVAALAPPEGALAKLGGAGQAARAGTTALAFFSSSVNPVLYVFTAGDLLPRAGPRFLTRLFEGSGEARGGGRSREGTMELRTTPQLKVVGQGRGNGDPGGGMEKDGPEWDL
# Description: (§1) In addition, in order to prepare stable CHO/BLT2 clones, CHO-K1 cells were transformed with pcDNA3-long form BLT2 encoding HA-tagged human BLT2, and selected with 0.4 mg/ml of G418 (Invitrogen, Carlsbad, Calif., USA).
# asthma-induced mice = test: Airway hyperresponsiveness (AHR) in OVA asthma-induced mice; format: in vivo
# From the text: Mast cells play a pivotal role in the initial reaction to asthma, and when an allergen enters the body from the outside through an airway, the mast cells are activated, thereby secreting various cytokines (interleukin-4 and interleukin-13). Due to the cytokines, the influx of inflammatory cells, and the generation of mucus and the airway contraction occur. The inventors used 7-week-old (18 to 20 g) female BALB/c mice provided by Orient (Seoungnam, Korea) for the experiment to confirm the anti-asthma effect, and asthma was induced in the mice. On day 1 and day 14, 2.5 mg of an adjuvant aluminum hydroxide gel (alum; Pierce, Rockford, Ill.) containing a […] of ovalbumin (OVA) was injected intraperitoneally to sensitize the female […] mice. After the two initial sensitizations, on day 21, day 22 and day 23, 1% OVA was sprayed into the mice using an ultrasonic nebulizer. […] After the initial sensitizations, on day 24, AHR was detected, and on day 25, the mice were dissected to observe asthma phenotypes such as the expression of an inflammatory cytokine IL-4, and the influx of the inflammatory cells (neutrophils). In addition, the AHR detection was performed after an airway constrictor methacholine (6.25 to 50 mg/ml depending on conditions) was administered to the mice. The administration of the airway constrictor was performed by spraying through an inlet of the chamber using an ultrasonic nebulizer for 3 minutes. The AHR was analyzed using an enhanced pause as the indicator of the asthma phenomenon.
# BLT1 = molecular target: T2, BLT1 (Homo sapiens, UniProt Q15722); test: LTB4-induced chemotactic motility of BLT1-expressing cells (Transwell); format: cell-based; conditions: CHO-BLT1 cells, LTB4 10 nM
# T2 construct: expressed in transfected cells; host or cells: CHO cells (CHO-BLT1)
# Description: (§2) Chemotactic motility was analyzed using a Transwell chamber including a polycarbonate filter (8-μm pore size, Corning Costar) with a 6.5-mm diameter. Specifically, the lower surface of the filter was coated with 10 μg/mL fibronectin in a serum-free RPMI 1640 medium at 37° C. for 1 hour. The experiment was performed by placing the filter dried and coated with RPMI 1640 media containing various amounts of LTB4 in the lower wells of the Transwell chamber, and loading CHO cells, which stably express both BLT1 and BLT2, into the upper wells containing serum-free RPMI 1640 media finally at 2×10^4 cells/100 μL. To evaluate the effect of inhibitors, the cells were pre-treated with each inhibitor for 30 minutes before dispensing. After the cells were cultured at 37° C. in 5% CO2 for 3 hours, the filters were fixed with methanol for 3 minutes, and stained with hematoxylin and eosin for 10 minutes. […] The chemotactic motility was quantitatively analyzed by counting the cells on the lower side of the filter under an optical microscope (magnification, 200×). For each analysis, 6 fields were subjected to counting, each sample was analyzed twice, and the analysis was repeated three times.
# [4] = test system: BLT2-expressing cells (CHO-BLT2 cells); test: Inhibition of LTB4-induced growth of BLT2-expressing cells (MTT); format: cell-based, human; conditions: LTB4 300 nM, 24 hours
# Description: Cell viability according to treatment of the compounds prepared in the examples were measured by a 3-(4,5-dimethylthiazol-2-yl)-2,5-diphenyltetrazolium bromide (MTT) method.
# More specifically, 1×10^4 each of the BLT2-nonexpressing cells (CHO-pcDNA3.1 cells) and BLT2-expressing cells (CHO-BLT2 cells), which were prepared in Experimental Example 1, were dispensed in a […], and cultured for 24 hours. Afterward, the culture medium was removed, a serum-free RPMI medium was added, and after two hours, the cells were pre-treated with each of the compound prepared in one of the examples (10 μM), 10 μM DMSO (compound solvent) as a control, and 10 μM of 1-[5-ethyl-2-hydroxy-4-[[6-methyl-6-(1H-tetrazol-5-yl)heptyl]oxy]phenyl]-ethanone (LY255283; Cayman) as a positive control for 1 hour. Subsequently, after treatment of LTB4 (300 nM), the cells were cultured for 24 hours. 20 μL of an MTT solution (5 mg/mL, Sigma-Aldrich) was added to each well, the cells were cultured in a humid CO2 incubator at 37° C. for 4 hours, and then the supernatant was removed, and 200 μL of DMSO was added to each well to dissolve insoluble violet formazan crystals. Absorbance was measured using a microplate reader (Molecular Devices, Sunnyvale, Calif.) at 550 nm, and the measurement was repeated three times.
# BLT2 [5] = molecular target: T1, BLT2; test: LTB4-induced BLT2-dependent chemotactic motility (Transwell); format: cell-based; design: expressed in transfected cells; conditions: CHO-BLT2 cells, LTB4 300 nM
# Description: as §1, §2
# [6] = severely asthma-induced mice (FIG. 7), airway constrictor 50 mg/ml, pre-treated (method 5 mg/kg intraperitoneally)
# T2 sequence (Q15722 whole entry, species assumed): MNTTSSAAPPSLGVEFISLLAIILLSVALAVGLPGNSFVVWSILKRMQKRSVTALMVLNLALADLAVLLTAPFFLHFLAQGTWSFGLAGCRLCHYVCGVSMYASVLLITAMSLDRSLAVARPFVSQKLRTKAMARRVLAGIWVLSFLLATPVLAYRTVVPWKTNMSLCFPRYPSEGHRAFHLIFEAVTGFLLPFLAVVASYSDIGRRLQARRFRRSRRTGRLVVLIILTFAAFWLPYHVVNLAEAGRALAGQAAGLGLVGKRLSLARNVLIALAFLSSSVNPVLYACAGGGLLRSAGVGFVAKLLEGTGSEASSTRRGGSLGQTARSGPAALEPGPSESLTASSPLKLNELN
compound,measurement,setting,value
"CCCCC(=O)N(Cc1ccc(-c2ccc(O)cc2)cc1)c1cccc(F)c1 [AC-1070, N-(3-fluorophenyl)-N-((4′-hydroxybiphenyl-4-yl)methyl)pentaneamide]",death of cancer cells on co-treatment with cisplatin,[1],highly increase
"CCCCC(=O)N(Cc1ccc(-c2ccc(C(=O)O)cc2)cc1)c1ccc(F)cc1 [AC-1072, 4′-((N-(4-fluorophenyl)pentaneamido)methyl)biphenyl-4-carboxylic acid]",death of cancer cells on co-treatment with cisplatin,[1],highly increase
"CCCCC(=O)N(Cc1ccc(-c2ccc(OCC(=O)O)cc2)cc1)c1ccccc1 [AC-1073, 2-(4′-((N-phenylpentaneamido)methyl)biphenyl-4-yloxy)acetic acid]",death of cancer cells on co-treatment with cisplatin,[1],highly increase
"CCCCC(=O)N(Cc1ccc(-c2ccc(OCC(=O)O)cc2)cc1)c1cccc(F)c1 [AC-1074, 2-(4′-((N-(3-fluorophenyl)pentaneamido)methyl)biphenyl-4-yloxy)acetic acid]",change in chemotactic motility compared with LPA (DMSO+),[2]; 10 μM pre-treatment,no change
same,production of IL-4 reduced,interleukin-4 (IL-4),35.5%
same,IC50,BLT2 [3],140 nM
same,AHR reduced,"asthma-induced mice; asthma-induced mice (FIG. 6), airway constrictor methacholine 50 mg/ml, pre-treated (printed 10 μM; method 5 mg/kg intraperitoneally)",42%
same,AHR reduced,asthma-induced mice; [6],59%
same,death of cancer cells on co-treatment with cisplatin,[1],highly increase
same,change in chemotactic motility compared with LTB4 (DMSO+),BLT1; 10 μM pre-treatment,no change
"CCCCC(=O)N(Cc1ccc(-c2ccc(OC)cc2)cc1)c1cccc(F)c1 [AC-1646, N-(3-fluorophenyl)-N-((4′-methoxybiphenyl-4-yl)methyl) pentaneamide]",growth inhibitory effect,[4]; compound 10 μM pre-treated 1 hour,72.1%
"CCCCC/C=C\C[C@@H](O)/C=C/C=C/C=C\[C@@H](O)CCCC(=O)O [LTB4, leukotriene B4, reference compound]",chemotactic motility increase compared with ethanol (DMSO−),BLT2 [5],2.9 times
same,chemotactic motility increase compared with ethanol (DMSO−),BLT1,2.8 times
"CCc1cc(C(C)=O)c(O)cc1OCCCCCC(C)(C)c1nnn[nH]1 [LY255283, 1-[5-ethyl-2-hydroxy-4-[[6-methyl-6-(1H-tetrazol-5-yl)heptyl]oxy]phenyl]-ethanone, reference compound]",production of IL-4 reduced,interleukin-4 (IL-4),67.2%
same,AHR reduced,asthma-induced mice; [6],69.2%
same,chemotactic motility compared with those treated with the ligand LTB4,BLT2 [5]; 10 μM pre-treatment,90%
same,death of cancer cells on co-treatment with cisplatin,[1],increased
same,cell growth compared with control DMSO,[4]; pre-treated with 10 μM,approximately 90%
"lysophosphatidic acid [LPA, reference compound]",chemotactic motility increase compared with ethanol (DMSO−),[2],3.4 times
